Experimental data published in patent EP2958945B1, “COMBINATION THERAPY INVOLVING ANTIBODIES AGAINST CLAUDIN 18.2 FOR TREATMENT OF CANCER” (Astellas Pharma Inc., priority 2013, dated 2014).

How the values were obtained:
Kato III cells [1] = assay: Viable cells after 3 days pretreatment, Kato III; format: cell-based, human; details: Kato III pretreated 3 days; Irinotecan 1000 ng/ml, Docetaxel 5 ng/ml, Cisplatin 2000 ng/ml; vs medium cultivated cells
Description: (§1) Peripheral blood mononuclear cells (PBMCs) including NK cells, monocytes, […] or other effector cells from healthy human donors were purified by Ficoll Hypaque density centrifugation. Washed effector cells were seeded in X-Vivo medium. Kato III cells which express CLDN18.2 endogenously and are of gastric origin were used as target cells in this setting. Target cells stably expressed luciferase, lucifer yellow, which is oxidized by viable cells only.

Kato III cells [2] = assay: IMAB362 induced ADCC on chemotherapy pretreated Kato III; format: cell-based, human; details: Kato III pretreated 3 days; Irinotecan 1000 ng/ml, Docetaxel 5 ng/ml, Cisplatin 2000 ng/ml
Description: as §1

CLDN18.2 [3] = assay: CLDN18.2 expression after 3 days pretreatment, Kato III; format: cell-based, human; details: Kato III pretreated 3 days; Irinotecan 1000 ng/ml, Docetaxel 5 ng/ml, Cisplatin 2000 ng/ml; vs medium cultivated cells
Kato III cells [4] = assay: Cell cycle analysis and cell growth, Kato III; format: cell-based, human; details: for cell cycle arrest: Kato III pretreated for 4 days
Description: Kato III cells, a human gastric tumor cell line, was cultivated in RPMI 1640 medium (Invitrogen) containing 20% FCS (Perbio) and 2 mM Glutamax (Invitrogen) at 37°C and 5% CO2, with or without cytostatic compounds. 5-FU (Neofluor from NeoCorp AG) was tested at a concentration of 10 or 100 ng/ml, and oxaliplatin (Hospira) was tested at a concentration of 50 or 500 ng/ml. […] Cells were harvested with EDTA/trypsin, washed and analysed.
Cell cycle stages were determined based on measurement of cellular DNA content. This allows one to discriminate between cells in the G1-, S- or G2-phase of the cell cycle. In the S-phase DNA duplication occurs whereas in the G2-phase cells grow and prepare for mitosis. Cell cycle analysis was done using the CycleTEST PLUS DNA Reagent Kit from BD Biosciences following the manufacturer's protocol. Flow cytometry acquisition and analysis were performed by using BD FACS CantoII (BD Biosciences) and FlowJo (Tree Star) software.
Kato III cells were pretreated for 4 days with Irinotecan or Docetaxel and analysed for CLDN18.2 expression and cell cycle arrest.

MiaPaCa-2-LVT xenografts = assay: Subcutaneous MiaPaCa-2-LVT xenograft model; format: in vivo, Hsd:Athymic Nude-Foxn1^nu mice; details: up to 100 mg/kg gemcitabine without additional IMAB362 treatment
DANG [5] = assay: IMAB362-mediated ADCC on chemotherapy pretreated DANG; format: cell-based, human; details: DANG pretreated 2 days, Gem 1 ng/ml or Gem 1 ng/ml + Ox 10 ng/ml; vs untreated
Description: Pancreatic cancer target cells were seeded two days in advance in flasks to obtain 80-90% confluent cultures on the day ADCC started. […] NUGC-4 sub 10cH11 subE10 Luci#2 cells (8000 cells/well) were seeded in addition as positive controls in all assays. Cells were cultivated for 4-6 h before addition of antibody and purified PBMCs.
PBMCs were prepared from fresh human buffy coat obtained from healthy donors. About 3x 20-25 ml blood was diluted (1:2) with PBS and carefully layered on 4x 15 ml Ficol-Paque Plus (GE Healthcare) in 50 ml Falcon tubes. Gradients were centrifuged (25 min, 700 g). […] The pellets were resuspended in 50 ml PBS/2 mM EDTA and cells were counted. […]
The next day, 10 µl 8% Triton X100/PBS solution was added to the lysis control wells and 10 µl PBS in all other wells. […] Luminescence resulting from the oxidation of […] by the luciferase of viable cells was measured using a microplate-reader (Infinite200, Tecan, Switzerland). Percentage of cellular cytotoxicity was calculated using the following formula: Specific killing (%) = 100−[(RLUsample−RLUtriton)/(RLUmedium ctrl−RLUtriton)×100] […]
On the day ADCC started, the protocol described above was followed and cell surface expression of CLDN18 was determined in FACS analysis as described above.

CLDN18.2 [6] = assay: CLDN18.2 expression after chemotherapeutic pretreatment (RT-PCR, western blot), DANG; format: cell-based, human; details: Gem 1 ng/ml or Gem 1 ng/ml + Ox 10 ng/ml, 2 days, vs untreated
Description: For RNA isolation from pancreatic cancer cell lines, cells were seeded in 10 cm dishes and grown for 2-3 days until 80% confluent. RNA was isolated according to instructions supplied with the RNeasy® Mini Kit (Qiagen). cDNA preparation was performed following manufacturers instructions provided with the SuperScript® III First Strand kit (Invitrogen). RNA and cDNA samples were stored at -80°C.
Quantitative analysis of CLDN18.2 transcripts was performed by amplifying oligo(dT)-primed cDNAs in a 40 cycle PCR reaction using PCR primers #5054s (5'-[…]-3') and #5060as (5'-[…]-3') differentiating between CLDN18.1 and CLDN18.2 isoforms. The reaction was prepared with SYBR Green (QuantiTect SYBR Green PCR Kit, Qiagen), which intercalates in double stranded DNA. The reactions and measurements were performed using the ABI-PRISM7900 Sequence Detection System instrument and software (Applied Biosystems).
The relative expression levels of CLDN18 transcripts was computed using ΔΔCT calculation with respect to the house keeping gene HPRT.
For isolation of proteins of pancreatic cancer cell lines, cells were seeded in 10 cm dishes and grown for 2-3 days until 80% confluent. […] Protein concentration was measured in a spectrophotometer (Absorption at 280nm) and samples were stored at -80°C until use. […]

BxPC3-LVT xenografts = assay: Subcutaneous BxPC3-LVT xenograft model; format: in vivo, Hsd:Athymic Nude-Foxn1^nu mice; details: up to 100 mg/kg gemcitabine without additional IMAB362 treatment
DANG [7] = assay: Cell cycle analysis, DANG; format: cell-based, human; details: Gem 2 ng/ml, two days
Description: Cells were plated in six-well plates, and 5-6 hours later chemotherapeutic agents were added for either 24 h 48 h or 3 days. Cells floating in the medium were combined with the adherent cell layer, which was trypsinized. Cells were washed. Either cell cycle analysis was started directly or cell surface staining was done before as described above. Cells are resuspended in 1 ml PBS and added to 3 ml 4% PFA. After 15 min fixation of cells at room temperature cells are pelleted and washed. For RNAse treatment cells were resuspended in 200 µl RNAse (10000 U/ml) plus 0.05% Triton X-100 and incubated for 30 min at 37°C. 1 ml PBS was added and samples were centrifuged and resuspended in 200 µl PBS/PJ 50 µg/ml. At least 30 min later samples were ready to be analyzed by flow cytometry. Cell cycle phase distribution was determined using FlowJo software to analyze DNA content histograms.

[8] = test system: established MiaPaCa-2-LVT xenograft tumors; assay: Established MiaPaCa-2-LVT xenograft tumors; format: in vivo, Hsd:Athymic Nude-Foxn1^nu mice; details: gemcitabine 2x 150 mg/kg per week, independent from IMAB362 treatment

| Structure (SMILES) | level of viable cells (Kato III cells [1]) | potency of IMAB362 to induce ADCC (Kato III cells [2]) | claudin18.2 expression (CLDN18.2 [3]) | cell cycle arrest (Kato III cells [4]) | further results |
| --- | --- | --- | --- | --- | --- |
| N.N.[Cl][Pt][Cl] [Cisplatin, cis-diamminedichloroplatinum(II)] | lower level of viable cells | augmented | increased | – | – |
| O=c1[nH]cc(F)c(=O)[nH]1 [5-FU, 5-fluoro-1H-pyrimidine-2,4-dione] | – | – | – | – | cell cycle phase distribution (Kato III cells [4]; Kato III, 5-FU 10 or 100 ng/ml, oxaliplatin 50 or 500 ng/ml, 96 hours): blocked predominantly in the S-phase |
| Nc1ccn([C@@H]2O[C@H](CO)[C@@H](O)C2(F)F)c(=O)n1 [gemcitabine, 4-amino-1-(2-deoxy-2,2-difluoro-β-D-erythro-pentofuranosyl)pyrimidin-2(1H)-one] | – | – | – | – | therapeutic effect on xenograft (MiaPaCa-2-LVT xenografts): no significant therapeutic effect; susceptibility for IMAB362 mediated ADCC (DANG [5]): higher susceptibility; mRNA and protein levels of CLDN18.2 (CLDN18.2 [6]): increased mRNA and protein levels; therapeutic effect on xenograft (BxPC3-LVT xenografts): no significant therapeutic effect; cell cycle arrest (DANG [7]): cell cycle arrest in S-Phase; tumor growth [8]: strongly inhibited in tumor growth |
| CC(=O)O[C@@]12CO[C@@H]1C[C@H](O)[C@@]1(C)C(=O)[C@H](O)C3=C(C)[C@@H](OC(=O)[C@H](O)[C@@H](NC(=O)OC(C)(C)C)c4ccccc4)C[C@@](O)([C@@H](OC(=O)c4ccccc4)[C@H]21)C3(C)C [Docetaxel, 1,7β,10β-trihydroxy-9-oxo-5β,20-epoxytax-11-ene-2α,4,13α-triyl 4-acetate 2-benzoate 13-{(2R,3S)-3-[(tert-butoxycarbonyl)-amino]-2-hydroxy-3-phenylpropanoate}] | lower level of viable cells | augmented | increased | cell cycle arrest in the G2-phase | – |
| CCc1c2c(nc3ccc(OC(=O)N4CCC(N5CCCCC5)CC4)cc13)-c1cc3c(c(=O)n1C2)COC(=O)[C@]3(O)CC [Irinotecan, (S)-4,11-diethyl-3,4,12,14-tetrahydro-4-hydroxy-3,14-dioxo1H-pyrano[3',4':6,7]-indolizino[1,2-b]quinolin-9-yl-[1,4'-bipiperidine]-1'-carboxylate] | lower level of viable cells | augmented | – | cell cycle arrest in the S/G2-phase | – |
